Source: patent publication US20040047865A1, “Compositions and their uses” (priority 1995, published 2004)

Tests used:
[1] = system: XNA IgG, normal porcine endothelial cells (PAE-68#4); assay: Two stage chromium release assay, inhibition of lysis by affinity-isolated IgG in the presence of sugars (FIG. 3); format: cell-based; conditions: IgG 80 μg/ml
Procedure: (§1) Briefly normal porcine endothelial cells were grown to confluence in 96well plates before being washed and labelled with ^51chromium. Excess label was removed and the cells were exposed to different concentrations of XNA. Unbound antibody was removed and 1/8 baby rabbit complement added for 1 hour at 37° C. Cell lysis was expressed as a percentage of the total counts associated with the endothelial cells, which could be detected in the medium after incubation of the cells with complement. […] Affinity-isolated IgM (10 μg/ml) or IgG (80 μg/ml) was incubated with endothelial cells as before in the presence of varying concentrations of four different sugar preparations. The cells were then washed and exposed to baby rabbit complement as previously described.

[2] = system: porcine endothelial cells; conditions: Neethling et al 1994; cited from earlier work
[3] = system: XNA IgM, normal porcine endothelial cells (PAE-68#4); assay: Two stage chromium release assay, inhibition of lysis by affinity-isolated IgM in the presence of sugars (FIG. 3); format: cell-based; conditions: IgM 10 μg/ml
Procedure: as §1

[4] = system: pig endothelial cells; conditions: infusion into baboons; Ye et al 1994; cited from earlier work

Compound | inhibition of cell lysis / IgG binding [1] | inhibition of the cytotoxic effects of human serum on porcine endothelial cells [2] | inhibition of cell lysis / XNA IgM binding [3] | protection of pig endothelial cells from killing by serum of infused baboons [4]
OC[C@H]1O[C@H](O[C@H]2[C@@H](O)[C@@H](CO)OC(O)[C@@H]2O)[C@H](O)[C@@H](O)[C@H]1O (stereo partly shown) [B-disaccharide, Galα1,3Gal] | minimal difference | best inhibitors |  | 
CC(=O)N[C@H]1C(O)O[C@H](CO)[C@@H](O[C@@H]2O[C@H](CO)[C@H](O)[C@H](O[C@H]3O[C@H](CO)[C@H](O)[C@H](O)[C@H]3O)[C@H]2O)[C@@H]1O (stereo partly shown) [B-trisaccharide, Galα1,3Galβ1,4GlcNAc] | minimal difference | best inhibitors | superior to B-disaccharide | 
OC[C@H]1O[C@H](OCC2O[C@@H](O)[C@H](O)[C@@H](O)[C@@H]2O)[C@H](O)[C@@H](O)[C@H]1O (stereo partly shown) [melibiose] |  |  |  | A level of protection was afforded
arabinogalactan |  |  |  | A level of protection was afforded
